From patent US5605895A, “Cephalosporin antibiotics and processes for preparation thereof” (Lucky, Ltd., priority 1993, dated 1997)
Converted amounts (≈) assume the structure as drawn. Where two headings read alike, the source gives them in different places.

Experiments:
A. calcoaceticus 15473A = assay: Minimum inhibitory concentration, agar dilution; format: cell-based; settings: Acinetobacter calcoaceticus, Muller-Hinton agar, 10^7 CFU per ml, 37° C., 20 hours
Protocol: (§1) The minimum inhibitory concentration was determined by diluting the test compounds according to 2-fold dilution, suspending them in M uller-Hinton agar medium, inoculating the test strains having 10^7 CFU per 1 ml into the medium and then culturing the medium at 37° C. for 20 hours.

E. cloacae 1194E = assay: Minimum inhibitory concentration, agar dilution; format: cell-based; settings: Enterobacter cloacae, read-out: Minimum Inhibitory Concentration
Protocol: as §1

E. coli 10536 = assay: Minimum inhibitory concentration, agar dilution; format: cell-based; settings: read-out: Minimum Inhibitory Concentration
Protocol: as §1

E. coli 3190Y = assay: Minimum inhibitory concentration, agar dilution; format: cell-based; settings: Escherichia coli, read-out: Minimum Inhibitory Concentration
Protocol: as §1

E. coli TEM1 1193E = assay: Minimum inhibitory concentration, agar dilution; format: cell-based; settings: Escherichia coli, TEM11193E, 20 h, read-out: Minimum Inhibitory Concentration
Protocol: as §1

E. coli TEM5 3739E = assay: Minimum inhibitory concentration, agar dilution; format: cell-based; settings: Escherichia coli, TEM53739E, 20 h, read-out: Minimum Inhibitory Concentration
Protocol: as §1

E. coli TEM9 2639E = assay: Minimum inhibitory concentration, agar dilution; format: cell-based; settings: Escherichia coli, TEM92639E, 20 h, read-out: Minimum Inhibitory Concentration
Protocol: as §1

K. aerogenes 1976E = assay: Minimum inhibitory concentration, agar dilution; format: cell-based; settings: Klebsiella aerogenes, Muller-Hinton agar, 10^7 CFU per ml, 37° C., 20 hours
Protocol: as §1

P. aeruginosa 10145 = assay: Minimum inhibitory concentration, agar dilution; format: cell-based; settings: Pseudomonas aeruginosa, Muller-Hinton agar, 10^7 CFU per ml, 37° C., 20 hours
Protocol: as §1

S. aureus 6538pA = assay: Minimum inhibitory concentration, agar dilution; format: cell-based; settings: Staphylococcus aureus, Muller-Hinton agar, 10^7 CFU per ml, 37° C., 20 hours
Protocol: as §1

S. aureus giorigio = assay: Minimum inhibitory concentration, agar dilution; format: cell-based; settings: Staphylococcus aureus, Muller-Hinton agar, 10^7 CFU per ml, 37° C., 20 hours
Protocol: as §1

S. faecalis 29212A = assay: Minimum inhibitory concentration, agar dilution; format: cell-based; settings: Enterococcus faecalis, read-out: Minimum Inhibitory Concentration
Protocol: as §1

S. marcescens 1826E = assay: Minimum inhibitory concentration, agar dilution; format: cell-based; settings: Serratia marcescens, Muller-Hinton agar, 10^7 CFU per ml, 37° C., 20 hours
Protocol: as §1

S. typhimurium 14028A = assay: Minimum inhibitory concentration, agar dilution; format: cell-based; settings: Salmonella enterica, read-out: Minimum Inhibitory Concentration
Protocol: as §1

[1] = Pharmacokinetic properties in SD rats; format: in vivo; settings: rat; SD rats (male), intravenous, 20 mg/kg; blood, biological assay (agar well method)
Protocol: The pharmacokinetic properties of the compound of the present invention were determined using SD rats (.male.) weighing 220 to 340 g. Specifically, the test samples were administered in intravenous route in an amount of 20 mg/kg to 2 to 5 test animals. Blood was taken from femoral vein every hours after the administration and then subjected to a biological assay using agar well method to measure the blood concentration. The results of pharmacokinetic properties calculated from the above blood concentration are described in the following Table 3.

P. aeruginosa 1912E = assay: Minimum inhibitory concentration, agar dilution; format: cell-based; settings: Pseudomonas aeruginosa, 20 h, read-out: Minimum Inhibitory Concentration
Protocol: as §1

P. aeruginosa 6065Y = assay: Minimum inhibitory concentration, agar dilution; format: cell-based; settings: Pseudomonas aeruginosa, 20 h, read-out: Minimum Inhibitory Concentration
Protocol: as §1

[2] = Escherichia coli, E. coli 10536, Muller-Hinton agar, 10^7 CFU per ml, 37° C., 20 hours

Structure (SMILES)	MIC (A. calcoaceticus 15473A)	MIC (E. coli 10536; [2])	MIC (E. coli 3190Y; 3190Y, 20 h)	MIC (E. coli TEM1 1193E)	MIC (E. coli TEM5 3739E)	MIC (E. coli TEM9 2639E)	MIC (K. aerogenes 1976E)	MIC (P. aeruginosa 10145)	MIC (S. aureus 6538pA)	MIC (S. aureus giorigio)	MIC (S. faecalis 29212A; 29212A, 20 h)	MIC (S. marcescens 1826E)	MIC (S. typhimurium 14028A; TYPHIMURIUM, 20 h)	AUC [1]	half-life [1]	MIC (E. cloacae 1194E; 1194E, 20 h)	MIC (P. aeruginosa 1912E)	MIC (P. aeruginosa 6065Y)	other results
C[n+]1cc(CS(=O)(=O)O)c(N)nc1SCC1=C(C(=O)[O-])N2C(=O)C(NC(=O)/C(=N\OC(C(=O)O)c3ccc(O)c(O)c3)c3csc(N)n3)[C@H]2SC1 (stereo partly drawn) [I-7(a), 7-[(Z)-2-(2-aminothiazol-4-yl)-2-(α-carboxy-3,4-dihydroxybenzyloxyimino)acetamido]-3-(1-methyl-4-amino-5-sulfomethylpyrimidinium-2-yl)thiomethyl-3-cephem-4-carboxylate]	0.5 µg/mL (≈ 0.639 µM)	0.031 µg/mL (≈ 0.0396 µM)	0.063 µg/mL (≈ 0.0805 µM)	0.13 µg/mL (≈ 0.166 µM)	0.5 µg/mL (≈ 0.639 µM)	4 µg/mL (≈ 5.11 µM)	0.5 µg/mL (≈ 0.639 µM)	0.25 µg/mL (≈ 0.319 µM)	2 µg/mL (≈ 2.55 µM)	2 µg/mL (≈ 2.55 µM)	32 µg/mL (≈ 40.9 µM)	1 µg/mL (≈ 1.28 µM)	0.5 µg/mL (≈ 0.639 µM)	53100 ng·h/mL	48 min				MIC (E. cloacae 1194E; E. cloacae 1194E, Muller-Hinton agar, 10^7 CFU per ml, 37° C., 20 hours): 8 µg/mL (≈ 10.2 µM)
Cn1c(N)n[n+]2c(SCC3=C(C(=O)[O-])N4C(=O)C(NC(=O)C(=NOC(C(=O)O)c5ccc(O)c(O)c5)c5csc(N)n5)[C@H]4SC3)nc(N)cc12 (stereo partly drawn) [I-10(a), 7-[(Z)-2-(2-aminothiazol-4-yl)-2-(α-carboxy-3,4-dihydroxybenzyloxyimino)acetamido]-3-(2,7-diamino-1-methyl[1,2,4]triazolo[1,5-c]pyrimidinium-5-yl)thiomethyl-3-cephem-4-carboxylate]	0.5 µg/mL (≈ 0.672 µM)	0.016 µg/mL (≈ 0.0215 µM)		0.063 µg/mL (≈ 0.0847 µM)	0.25 µg/mL (≈ 0.336 µM)	1 µg/mL (≈ 1.34 µM)	0.13 µg/mL (≈ 0.175 µM)	0.25 µg/mL (≈ 0.336 µM)	0.5 µg/mL (≈ 0.672 µM)	0.25 µg/mL (≈ 0.336 µM)		0.25 µg/mL (≈ 0.336 µM)	0.063 µg/mL (≈ 0.0847 µM)	66000 ng·h/mL	58 min	1 µg/mL (≈ 1.34 µM)	0.5 µg/mL (≈ 0.672 µM)	0.5 µg/mL (≈ 0.672 µM)	MIC (E. coli 3190Y; E. coli 3190Y, Muller-Hinton agar, 10^7 CFU per ml, 37° C., 20 hours): 0.031 µg/mL (≈ 0.0417 µM); MIC (S. faecalis 29212A; S. faecalis 29212A, Muller-Hinton agar, 10^7 CFU per ml, 37° C., 20 hours): 8 µg/mL (≈ 10.8 µM)
C[n+]1cc(C(=O)O)c(N)nc1SCC1=C(C(=O)[O-])N2C(=O)C(NC(=O)/C(=N\OC(C(=O)O)c3ccc(O)c(O)c3)c3csc(N)n3)[C@H]2SC1 (stereo partly drawn) [I-6(a), 7-[(Z)-2-(2-aminothiazol-4-yl)-2-(α-carboxy-3,4-dihydroxybenzyloxyimino)acetamido]-3-(4-amino-1-methyl-5-carboxypyrimidinium-2-yl)thiomethyl-3-cephem-4-carboxylate]	0.5 µg/mL (≈ 0.682 µM)	0.031 µg/mL (≈ 0.0423 µM)	0.13 µg/mL (≈ 0.177 µM)	0.063 µg/mL (≈ 0.086 µM)	0.25 µg/mL (≈ 0.341 µM)	4 µg/mL (≈ 5.46 µM)	0.25 µg/mL (≈ 0.341 µM)	0.25 µg/mL (≈ 0.341 µM)	2 µg/mL (≈ 2.73 µM)	2 µg/mL (≈ 2.73 µM)	32 µg/mL (≈ 43.7 µM)	1 µg/mL (≈ 1.36 µM)		37800 ng·h/mL	32 min	4 µg/mL (≈ 5.46 µM)	0.25 µg/mL (≈ 0.341 µM)	0.5 µg/mL (≈ 0.682 µM)	MIC (S. typhimurium 14028A; S. typhimurium 14028A, Muller-Hinton agar, 10^7 CFU per ml, 37° C., 20 hours): 0.031 µg/mL (≈ 0.0423 µM)
CC(C)(O/N=C(\C(=O)N[C@@H]1C(=O)N2C(C(=O)[O-])=C(C[n+]3ccccc3)CS[C@H]12)c1csc(N)n1)C(=O)O [CAZ, Ceftazidime, reference compound]	2 µg/mL (≈ 3.66 µM)		0.063 µg/mL (≈ 0.115 µM)	0.25 µg/mL (≈ 0.457 µM)	8 µg/mL (≈ 14.6 µM)	> 128 µg/mL	0.25 µg/mL (≈ 0.457 µM)	2 µg/mL (≈ 3.66 µM)	16 µg/mL (≈ 29.3 µM)	4 µg/mL (≈ 7.32 µM)	> 128 µg/mL	0.25 µg/mL (≈ 0.457 µM)	0.25 µg/mL (≈ 0.457 µM)			128 µg/mL (≈ 234 µM)	1 µg/mL (≈ 1.83 µM)	32 µg/mL (≈ 58.5 µM)	MIC (E. coli 10536; Escherichia coli, 10536, 20 h): 0.13 µg/mL (≈ 0.238 µM)
